Measurements published in patent US20260139254A1, “INTERFERING RNA FOR INHIBITING TOP1 GENE EXPRESSION AND USE THEREOF” (JENKEM TECHNOLOGY CO., LTD. (BEIJING), priority 2022, published 2026).

Assays:
Assay type in all cases: cell-based, human
A375 melanoma cells = experiment: Inhibition of A375 cell proliferation by siTOP1 (CCK-8); details: A375, siRNA 50 nM, 72 h
Procedure: • 1) On the day before transfection, A375 melanoma cells were seeded into a 96-well plate at 2500-3000 cells/well, the culture medium being a total volume of 200 μL of DMEM culture medium containing 7.5% FBS and 1% Penicillin-Streptomycin, and the plate was placed in an incubator with 5% CO2 at 37° C. for 24 h to allow the cells to adhere to the wall. 5 replicate wells were made for each group. • 2) On the day of transfection, the culture medium was changed to 90 μL of reduced serum culture medium without antibiotics and containing 7.5% FBS. • 3) The siRNAs were diluted with an appropriate amount of Opti-MEM culture medium; Lipofectamine™ RNAiMAX (Lipo) transfection reagent was diluted with another appropriate amount of Opti-MEM culture medium and left to stand at room temperature for 5 min; and the two dilutions were uniformly mixed and left to stand at room temperature for 5 min. • 4) 10 μL of the mixed solution described above was added to each well to obtain a final transfection volume of 100 μL, and the working concentration of the siRNA was 50 nM. • 5) The cells were cultured in the incubator with 5% CO2 at 37° C. for 72 h.
After 72 h of transfection, 10 μL of CCK-8 solution was added to each well, and the cells were cultured in the incubator with 5% CO2 at 37° C. for another 4 h. The absorbance value at 450 nm was measured using a microplate reader. Cell viability was calculated according to the following formula: […]

TOP1 mRNA [1] = experiment: Inhibitory effect of siTOP1 on TOP1 mRNA in A375 cells (Lipofectamine RNAiMAX transfection, Q-PCR); details: A375, siRNA 50 nM, 48 h after transfection; for Relative expression level of gene, mean value: Blank = 100.00, GAPDH reference
Procedure: • 1) On the day before transfection, A375 melanoma cells were seeded into a 24-well plate at 6×10^4 to 8×10^4 cells/well, the culture medium being 500 μL of DMEM containing 10% FBS and 1% Penicillin-Streptomycin, and the plate was placed in an incubator with 5% CO2 at 37° C. for 24 h to allow the cells to adhere to the wall. Three replicate wells were made for each group. • 2) On the day of transfection, the culture medium was changed to 450 μL of DMEM culture medium without antibiotics (containing 10% FBS). • 3) The siRNAs were diluted with 25 μL of Opti-MEM culture medium; the siNC (the siNC (reference: O Sordet et al., 2008) having the target sequence of 5′-TTCTCCGAACGTGTCACGT-3′ (SEQ ID NO: 46)) at the same concentration was the negative control group; Lipofectamine™ RNAiMAX (Lipo) transfection reagent was diluted with another 25 μL of Opti-MEM culture medium and left to stand at room temperature for 5 min; and the two dilutions were uniformly mixed and left to stand at room temperature for 5 min. • 4) 50 μL of the mixed solution described above was added to each well to obtain a final transfection volume of 500 μL. and the working concentration of the siRNA was 50 nM. • 5) After the transfection, the cells were cultured for 48 h and then collected.
• 1) RNA was extracted using an Eastep™ Super total RNA extraction kit; 300 μL of RNA lysis solution and 300 μL of RNA diluent were added; and the mixture was uniformly mixed and then transferred to a 1.5 mL centrifuge tube. • 2) The mixture was centrifuged at 14000 g for 5 min, and the supernatant was carefully pipetted into a new 1.5 mL centrifuge tube. • 3) A 0.5-fold volume of absolute ethanol was added, and the mixture was uniformly mixed by allowing the tube to be repeatedly upside down 15-20 times. Subsequently, the mixture was transferred to a centrifuge column and centrifuged at 12000 g for 1 min. The filtrate was discarded. • 4) 600 μL of RNA wash buffer was added, and the mixture was centrifuged at 12000 g for 1 min. The filtrate was discarded. • 5) 50 μL of DNase I incubation buffer was added, followed by DNA digestion at room temperature for 15 min. • 6) 600 μL of RNA wash buffer was added, the mixture was centrifuged at 12000 g for 1 min, and the filtrate was discarded. This procedure was repeated once. • 7) The mixture was centrifuged at 14000 g for 2 min to remove the residual RNA wash buffer, and then the centrifuge column was placed in a collection tube. • 8) An appropriate amount of RNase-free H2O was added, and the mixture was left to stand at room temperature for 12 min and centrifuged at 14000 g for 1 min. The collected RNA was preserved at −70° C. for later use.
• 1) The mass and concentration of the RNA were detected using NanoDrop™, and an RNA template was prepared as follows: RNase-free H2O was added to 1 μg of RNA to a volume of 10 μL; the mixture was placed at 70° C. for 5 min and then placed in an ice bath for 5 min for later use. • 2) A reaction system was established according to Table 2:
• 3) The reaction system described above was uniformly mixed and centrifuged to collect the liquid at the bottom of a tube, and the mixture was subjected to the procedures of 25° C. for 5 min, 42° C. for 60 min, and 72° C. for 15 min, thereby giving the cDNA product. • 4) A Q-PCR system was prepared according to Table 3, and the level of TOP1 gene was detected:
GAPDH was used as an endogenous reference, and the sequences of the primers used for detection are as follows: […]

TOP1 mRNA [2] = experiment: Inhibitory effects of modified sequences of siTOP1-1604 on TOP1 mRNA in PC-3 cells; details: PC-3, siRNA 50 nM, 48 h after transfection, Blank = 100.00
Procedure: PC-3 human prostate cancer cells were transfected with the modified siTOP1 according to the method in Example 2 at a siRNA working concentration of 50 nM. TOP1 mRNA levels were detected 48 h after the transfection. The control groups were Blank (Opti-MEM at the equal volume), Lipofectamine™ RNAiMAX (Lipo) transfection reagent, and the positive control unmodified siTOP-1604.

| Substance | Relative expression level of gene, mean value (TOP1 mRNA [1]) | Inhibition of TOP1 expression (TOP1 mRNA [1]) | other results |
| --- | --- | --- | --- |
| siTOP1-267: siRNA targeting TOP1; target SEQ ID NO: 1, sense strand SEQ ID NO: 16, antisense strand SEQ ID NO: 31 (sense CAACGAUUCCCAGAUCGAAUU; antisense UUCGAUCUGGGAAUCGUUGUU; modified_base 20..21 OTHER; thymine) | 21.85 | – | Cell viability (%), mean value (A375 melanoma cells): 58.27%; Inhibition of A375 cell proliferation compared to Blank (A375 melanoma cells): about 42% |
| siTOP1-628: siRNA targeting TOP1; target SEQ ID NO: 2, sense strand SEQ ID NO: 17, antisense strand SEQ ID NO: 32 (sense CCUCCUAAAGAGGAUAUAAUU; antisense UUAUAUCCUCUUUAGGAGGUU; modified_base 20..21 OTHER; thymine) | 24.27 | – | – |
| siTOP1-896: siRNA targeting TOP1; target SEQ ID NO: 3, sense strand SEQ ID NO: 18, antisense strand SEQ ID NO: 33 (sense GGAAAUUCCUAGAACAUAAUU; antisense UUAUGUUCUAGGAAUUUCCUU; modified_base 20..21 OTHER; thymine) | 13.05 | – | – |
| siTOP1-1261: siRNA targeting TOP1; target SEQ ID NO: 4, sense strand SEQ ID NO: 19, antisense strand SEQ ID NO: 34 (sense GGAUUCUGUAUUAUGGAUAUU; antisense UAUCCAUAAUACAGAAUCCUU; modified_base 20..21 OTHER; thymine) | 17.75 | – | – |
| siTOP1-1282: siRNA targeting TOP1; target SEQ ID NO: 5, sense strand SEQ ID NO: 20, antisense strand SEQ ID NO: 35 (sense CACAAAGAGAGGAUUGCUAUU; antisense UAGCAAUCCUCUCUUUGUGUU; modified_base 20..21 OTHER; thymine) | 6.64 | 93.4% | – |
| siTOP1-1357: siRNA targeting TOP1; target SEQ ID NO: 6, sense strand SEQ ID NO: 21, antisense strand SEQ ID NO: 36 (sense GGCAUGCUGAAGAGACGAAUU; antisense UUCGUCUCUUCAGCAUGCCUU; modified_base 20..21 OTHER; thymine) | 19.62 | – | – |
| siTOP1-1459: siRNA targeting TOP1; target SEQ ID NO: 7, sense strand SEQ ID NO: 22, antisense strand SEQ ID NO: 37 (sense CGGCAUGAUAACAAGGUUAUU; antisense UAACCUUGUUAUCAUGCCGUU; modified_base 20..21 OTHER; thymine) | 9.89 | 90.1% | – |
| siTOP1-1530: siRNA targeting TOP1; target SEQ ID NO: 8, sense strand SEQ ID NO: 23, antisense strand SEQ ID NO: 38 (sense GCUUAACCCUAGUUCACGAUU; antisense UCGUGAACUAGGGUUAAGCUU; modified_base 20..21 OTHER; thymine) | 9.44 | 90.6% | – |
| siTOP1-1604-m1: Methylation-modified siTOP1-1604; sense strand SEQ ID NO: 51, antisense strand SEQ ID NO: 52 (sense GUGUGGACAAGAUCCGGAATT; antisense UUCCGGAUCUUGUCCACACTT; DNA at T, 2'-O-methyl at CU, RNA at AG, backbone not given here) | – | – | Relative expression level, mean value (TOP1 mRNA [2]): 71.77 |
| siTOP1-1630: siRNA targeting TOP1; target SEQ ID NO: 10, sense strand SEQ ID NO: 25, antisense strand SEQ ID NO: 40 (sense CGAGAAGACUGGAAGUCCAUU; antisense UGGACUUCCAGUCUUCUCGUU; modified_base 20..21 OTHER; thymine) | 17.34 | – | Cell viability (%), mean value (A375 melanoma cells): 43.84%; Inhibition of A375 cell proliferation compared to Blank (A375 melanoma cells): about 56% |
| siTOP1-1679: siRNA targeting TOP1; target SEQ ID NO: 11, sense strand SEQ ID NO: 26, antisense strand SEQ ID NO: 41 (sense CCCUGUACUUCAUCGACAAUU; antisense UUGUCGAUGAAGUACAGGGUU; modified_base 20..21 OTHER; thymine) | 8.86 | 91.1% | – |
| siTOP1-1776: siRNA targeting TOP1; target SEQ ID NO: 12, sense strand SEQ ID NO: 27, antisense strand SEQ ID NO: 42 (sense GCACAUCAAUCUACACCCAUU; antisense UGGGUGUAGAUUGAUGUGCUU; modified_base 20..21 OTHER; thymine) | 7.41 | 92.6% | – |
| siTOP1-2273: siRNA targeting TOP1; target SEQ ID NO: 13, sense strand SEQ ID NO: 28, antisense strand SEQ ID NO: 43 (sense AGGAUGCAAAGACGAAGAAUU; antisense UUCUUCGUCUUUGCAUCCUUU; modified_base 20..21 OTHER; thymine) | 12.54 | – | – |
| siTOP1-2585: siRNA targeting TOP1; target SEQ ID NO: 14, sense strand SEQ ID NO: 29, antisense strand SEQ ID NO: 44 (sense GGUUUGGGAAAGAUGGAUAUU; antisense UAUCCAUCUUUCCCAAACCUU; modified_base 20..21 OTHER; thymine) | 8.84 | 91.2% | – |
| siTOP1-2898: siRNA targeting TOP1; target SEQ ID NO: 15, sense strand SEQ ID NO: 30, antisense strand SEQ ID NO: 45 (sense CGAUUAUAUUGGUGCGUUUUU; antisense AAACGCACCAAUAUAAUCGUU; modified_base 20..21 OTHER; thymine) | 7.05 | 93.0% | – |
